The results in this text go back to patent US9012431B2, “Boron-containing small molecules as anti-inflammatory agents” (Anacor Pharmaceuticals, Inc., priority 2008, dated 2015).

The subject of one assay is IL-5. The assay can be described thus: Cytokine assay, IL-5 release from PBMC. It is filed as cell-based. The conditions noted are these: human PBMC, 20 ug/mL PHA, supernatant at 48 hours. As for the experimental part: (§1) The ability of the compounds described herein to inhibit pro-inflammatory cytokines or phsophodiesterases were tested.
(§2) Frozen human peripheral blood mononucleocytes (PBMC) were thawed and centrifuged. Cryopreservation media was aspirated off of the cell pellet, and the cells were resuspended in fresh culture media (CM) comprising RPMI 1640 and 10% FBS in 96 well plates. Test article was dissolved in DMSO to form a 10 mM sample (DMSO, 100%). The 10 mM samples were diluted to 100 μM in CM (DMSO, 1%), then further diluted to 10, 1, 0.1, 0.01 μM in 200 μL of CM (n=3). […] IL-23 was assayed using a commercial ELISA kit (R&D Systems).

In the next assay the test system is IFN-γ. The assay can be described thus: Cytokine assay, IFN-γ release from PBMC. The note with it: human PBMC, 20 ug/mL PHA, supernatant at 24 hours. It is filed as cell-based. The method, then:
as §1, §2

The next assay has as its system IL-2. Description: Cytokine assay, IL-2 release from PBMC. It is filed as cell-based. The note with it: human PBMC, 20 ug/mL PHA, supernatant at 24 hours. As for the experimental part:
as §1, §2

Another assay concerns TNF-α. The assay can be described thus: Cytokine assay, TNF-α release from PBMC. The format is cell-based. The conditions noted are these: 1 μg/mL LPS, supernatant at 24 hours. As for the experimental part:
as §1, §2

The subject of a further assay is IL-10. The assay can be described thus: Cytokine assay, IL-10 release from PBMC. It is filed as cell-based. The note with it: human PBMC, 20 ug/mL PHA, supernatant at 48 hours. The method, then:
as §1, §2

Assay [1] relates to T1, PDE4 partially purified from human U-937 myeloid leukemia cells.
T1 construct: PDE4 partially purified from human U-937 myeloid leukemia cells was used
Description: PDE4 Assay (enzyme from U-937 cells, [3H]cAMP). The note with it: PDE4 from U-937 cells, Tris buffer pH 7.5, 20 minutes at 25° C. The format is biochemical. As for the experimental part: Test article and/or vehicle was incubated with 0.2 mg enzyme and 1 mM cAMP containing 0.01 mM [3H]cAMP in Tris buffer pH 7.5 for 20 minutes at 25° C. The reaction was terminated by boiling for 2 minutes and the resulting AMP is converted to adenosine by addition of 10 mg/ml snake venom nucleotidase and further incubation at 37° C. for 10 minutes. Unhydrolyzed cAMP is bound to AG1-X2 resin, and remaining [3H]Adenosine in the aqueous phase is quantitated by scintillation counting.

SMILES strings stand for the structures. Where only a bound is given, the exact number is not on record here.

`N#Cc1ccc(Oc2ccc3c(c2)COB3O)cc1OCC(=O)N1CCOCC1` [D41, 4-(1-Hydroxy-1,3-dihydro-benzo[c][1,2]oxaborol-5-yloxy)-2-(2-morpholin-4-yl-2-oxo-ethoxy)-benzonitrile]: the IC50 (in general, the concentration needed to halve the response being measured) in the assay with IL-5 is 1 to 4 µM; with IFN-γ, below 1000 nM; in the assay on IL-2 it was below 1000 nM; with TNF-α (Homo sapiens, PBMC, 24 h), 1000 to 4000 nM; with IL-10 it was 1 to 4 µM; in assay [1], below 1000 nM.

In the case of `COc1ccc(C#N)c(Oc2ccc3c(c2)COB3O)n1` [D47, 2-(1-Hydroxy-1,3-dihydro-benzo[c][1,2]oxaborol-5-yloxy)-6-methoxy-nicotinonitrile], the IC50 in the assay on IL-5 was below 1 µM; with IFN-γ it was below 1000 nM; with IL-2, below 1000 nM; in the assay on TNF-α (Homo sapiens, PBMC, 24 h) it was below 1000 nM; in the assay on IL-10 it was 1 to 4 µM; in assay [1] it was below 1000 nM.

On to `CCOC(=O)c1ccc(Oc2ccc3c(c2)COB3O)c(F)c1` [D51, 5-(2-Fluoro-4-ethoxycarbonylphenoxy)-1-hydroxy-2,1-benzoxaborole], for which the IC50 was 4 to 10 µM with IL-5; 1000 to 4000 nM in the assay on IFN-γ; 1000 to 4000 nM in the assay with IL-2; 1000 to 4000 nM in the assay with TNF-α (Homo sapiens, PBMC, 24 h); 1 to 4 µM in the assay with IL-10; below 1000 nM in assay [1].

`COC(=O)c1cc(F)c(Oc2ccc3c(c2)COB3O)c(F)c1` [D52, 5-(2,6-Difluoro-4-methoxycarbonylphenoxy)-1-hydroxy-2,1-benzoxaborole]: the IC50 is above 10 µM in the assay on IL-5; 4000 to 10000 nM with IFN-γ; 4000 to 10000 nM in the assay on IL-2; above 10000 nM with TNF-α (Homo sapiens, PBMC, 24 h); above 10 µM with IL-10; 1000 to 4000 nM in assay [1].

As to `CCOC(=O)c1cc(F)c(Oc2ccc3c(c2)COB3O)cc1Cl` [D53, 5-(5-Chloro-2-fluoro-4-ethoxycarbonylphenoxy)-1-hydroxy-2,1-benzoxaborole], the IC50 in the assay with IL-5 was 1 to 4 µM; with IFN-γ, below 1000 nM; in the assay with IL-2 it was below 1000 nM; in the assay on TNF-α (Homo sapiens, PBMC, 24 h), below 1000 nM; in the assay with IL-10, 1 to 4 µM; in assay [1], below 1000 nM.

Turning to `CCOC(=O)c1ccc(Oc2ccc3c(c2)COB3O)c(C(F)(F)F)c1` [D54, 5-(4-Eethoxycarbonyl-2-trifluoromethylphenoxy)-1-hydroxy-2,1-benzoxaborole], the half-inhibitory concentration (IC50) in the assay on IL-5 was 1 to 4 µM; with IFN-γ, below 1000 nM; in the assay on IL-2 it was below 1000 nM; in the assay on TNF-α (Homo sapiens, PBMC, 24 h), below 1000 nM; in the assay on IL-10, below 1 µM; in assay [1] it was below 1000 nM.

`CC(C)OC(=O)c1ccc(Oc2ccc3c(c2)COB3O)c(F)c1` [D55, 5-(2-Fluoro-4-isopropyloxycarbonylphenoxy)-1-hydroxy-2,1-benzoxaborole]: the half-inhibitory concentration (IC50) was 1 to 4 µM in the assay with IL-5; below 1000 nM with IFN-γ; below 1000 nM in the assay with IL-2; 4000 to 10000 nM with TNF-α (Homo sapiens, PBMC, 24 h); 4 to 10 µM in the assay on IL-10; below 1000 nM in assay [1].

Regarding `CCOC(=O)c1cc(F)c(Oc2ccc3c(c2)COB3O)c(F)c1` [D56, 5-(2,6-Difluoro-4-ethoxycarbonylphenoxy)-1-hydroxy-2,1-benzoxaborole], the IC50 in the assay with IL-5 was above 10 µM; with IFN-γ it was above 10000 nM; in the assay on IL-2 it was 4000 to 10000 nM; in the assay with TNF-α (Homo sapiens, PBMC, 24 h), above 10000 nM; in the assay with IL-10 it was above 10 µM; in assay [1], 1000 to 4000 nM.

As to `CCOC(=O)c1ccc(Oc2ccc3c(c2)COB3O)cc1Cl` [D57, 5-(3-Chloro-4-ethoxycarbonylphenoxy)-1-hydroxy-2,1-benzoxaborole], the IC50 in the assay on IL-5 was below 1 µM; in the assay on IFN-γ it was 1000 to 4000 nM; with IL-2, below 1000 nM; in the assay with TNF-α (Homo sapiens, PBMC, 24 h), 4000 to 10000 nM; in the assay on IL-10, above 10 µM; in assay [1] it was below 1000 nM.

Turning to `CCOC(=O)c1cc(Cl)c(Oc2ccc3c(c2)COB3O)cc1F` [D58, 5-(2-Chloro-5-fluoro-4-ethoxycarbonylphenoxy)-1-hydroxy-2,1-benzoxaborole], the IC50 in the assay with IL-5 is below 1 µM; with IFN-γ, below 1000 nM; in the assay with IL-2, below 1000 nM; in the assay on TNF-α (Homo sapiens, PBMC, 24 h), 1000 to 4000 nM; with IL-10, above 10 µM; in assay [1], below 1000 nM.

Consider `CCN(CC)C(=O)c1ccc(Oc2ccc3c(c2)COB3O)nc1` [D62, N,N-diethyl-6-(1-hydroxy-1,3-dihydrobenzo[c][1,2]-5-yloxy) nicotinamide], for which the IC50 in the assay with IL-5 is 1 to 4 µM; in the assay with IFN-γ, below 1000 nM; in the assay on IL-2, below 1000 nM; in the assay on TNF-α (Homo sapiens, PBMC, 24 h), below 1000 nM; in the assay on IL-10, 1 to 4 µM; in assay [1] it was 1000 to 4000 nM.

Consider `CCCOC(=O)c1ccc(Oc2ccc3c(c2)COB3O)nc1` [D66, n-Propyl 6-(1-hydroxy-1,3-dihydrobenzo[c][1,2]oxaborol-5-yloxy)nicotinate], for which the IC50 was below 1 µM in the assay on IL-5; below 1000 nM in the assay with IFN-γ; below 1000 nM in the assay with IL-2; below 1000 nM in the assay on TNF-α (Homo sapiens, PBMC, 24 h); below 1 µM with IL-10; below 1000 nM in assay [1].

For the molecule `COC(=O)c1ccc(Oc2ccc3c(c2)COB3O)cc1` [D71, 4-(1-Hydroxy-1,3-dihydro-benzo[c][1,2]oxaborol-5-yloxy)-benzoic acid methyl ester], the IC50 was 4 to 10 µM in the assay on IL-5; 1000 to 4000 nM in the assay with IFN-γ; 1000 to 4000 nM with IL-2; 1000 to 4000 nM in the assay with TNF-α (Homo sapiens, PBMC, 24 h); above 10 µM in the assay on IL-10; below 1000 nM in assay [1].

As to `CCOC(=O)c1ccc(Oc2ccc3c(c2)COB3O)cc1` [D72, 4-(1-Hydroxy-1,3-dihydro-benzo[c][1,2]oxaborol-5-yloxy)-benzoic acid ethyl ester], the concentration for half-maximal inhibition (IC50) is 4 to 10 µM in the assay with IL-5; 1000 to 4000 nM in the assay with IFN-γ; 1000 to 4000 nM in the assay on IL-2; 1000 to 4000 nM with TNF-α (Homo sapiens, PBMC, 24 h); above 10 µM in the assay on IL-10; below 1000 nM in assay [1].

`CC(C)OC(=O)c1ccc(Oc2ccc3c(c2)COB3O)cc1` [D74, 4-(1-Hydroxy-1,3-dihydro-benzo[c][1,2]oxaborol-5-yloxy)-benzoic acid isopropyl ester]: the IC50 with IL-5 was 1 to 4 µM; with IFN-γ, below 1000 nM; with IL-2 it was below 1000 nM; in the assay on TNF-α (Homo sapiens, PBMC, 24 h) it was 1000 to 4000 nM; in the assay with IL-10, 1 to 4 µM; in assay [1], below 1000 nM.

With `O=C(NCc1ccccc1)c1ccc(Oc2ccc3c(c2)COB3O)cc1` [D76, N-Benzyl-4-(1-hydroxy-1,3-dihydro-benzo[c][1,2]oxaborol-5-yloxy)-benzamide], the concentration for half-maximal inhibition (IC50) is 4 to 10 µM in the assay on IL-5; 1000 to 4000 nM in the assay with IFN-γ; below 1000 nM with IL-2; 1000 to 4000 nM in the assay with TNF-α (Homo sapiens, PBMC, 24 h); 1 to 4 µM in the assay on IL-10; below 1000 nM in assay [1].

Consider `O=C(NCc1ccccn1)c1ccc(Oc2ccc3c(c2)COB3O)cc1` [D78, 4-(1-Hydroxy-1,3-dihydro-benzo[c][1,2]oxaborol-5-yloxy)-N-pyridin-2-ylmethyl-benzamide], for which the half-inhibitory concentration (IC50) with IL-5 was 1 to 4 µM; in the assay on IFN-γ it was 1000 to 4000 nM; in the assay with IL-2, 1000 to 4000 nM; with TNF-α (Homo sapiens, PBMC, 24 h), 1000 to 4000 nM; in the assay on IL-10, 1 to 4 µM; in assay [1], below 1000 nM.

With `N#Cc1ccc(Oc2ccc3c(c2)COB3O)nc1` [D82, 6-(1-hydroxy-1,3-dihydrobenzo[c][1,2]oxaborol-5-yloxy)nicotinonitrile], the concentration for half-maximal inhibition (IC50) in the assay with IL-5 was 1 to 4 µM; in the assay with IFN-γ, below 1000 nM; with IL-2, below 1000 nM; in the assay on TNF-α (human PBMC), below 1000 nM; in the assay with IL-10, below 1 µM; in assay [1] it was below 1000 nM.

On to `N#Cc1ccc(Oc2ccc3c(c2)COB3O)c(F)c1` [D84, 3-fluoro-4-(1-hydroxy-1,3-dihydrobenzo[c][1,2]oxaborol-5-yloxy)benzonitrile], for which the IC50 with IL-5 is 4 to 10 µM; with IFN-γ, 4000 to 10000 nM; in the assay on IL-2, 1000 to 4000 nM; in the assay on TNF-α (Homo sapiens, PBMC, 24 h) it was 1000 to 4000 nM; in the assay with IL-10 it was 1 to 4 µM; in assay [1], below 1000 nM.

As for `Cc1cc(C#N)ccc1Oc1ccc2c(c1)COB2O` [D85, 3-methyl-4-(1-hydroxy-1,3-dihydrobenzo[c][1,2]oxaborol-5-yloxy)benzonitrile], the IC50 was below 1 µM with IL-5; below 1000 nM in the assay on IFN-γ; below 1000 nM with IL-2; below 1000 nM with TNF-α (Homo sapiens, PBMC, 24 h); 1 to 4 µM with IL-10; below 1000 nM in assay [1].

Take `COc1ccc(Oc2ccc3c(c2)COB3O)cc1OC` [D94, 5-(3,4-dimethoxyphenoxy)benzo[c][1,2]oxaborol-1 (3H)-ol]: the half-maximal inhibitory concentration (IC50) in the assay on IL-5 is 1 to 4 µM; in the assay with IFN-γ, 1000 to 4000 nM; in the assay on IL-2 it was 1000 to 4000 nM; in the assay on TNF-α (Homo sapiens, PBMC, 24 h), 1000 to 4000 nM; with IL-10, above 10 µM; in assay [1] it was below 1000 nM.
